Assay [1] addresses T1, phosphofructokinase-1 platelet type (PFKP) (Homo sapiens, UniProt Q01813).
T1 sequence (Q01813 1-784): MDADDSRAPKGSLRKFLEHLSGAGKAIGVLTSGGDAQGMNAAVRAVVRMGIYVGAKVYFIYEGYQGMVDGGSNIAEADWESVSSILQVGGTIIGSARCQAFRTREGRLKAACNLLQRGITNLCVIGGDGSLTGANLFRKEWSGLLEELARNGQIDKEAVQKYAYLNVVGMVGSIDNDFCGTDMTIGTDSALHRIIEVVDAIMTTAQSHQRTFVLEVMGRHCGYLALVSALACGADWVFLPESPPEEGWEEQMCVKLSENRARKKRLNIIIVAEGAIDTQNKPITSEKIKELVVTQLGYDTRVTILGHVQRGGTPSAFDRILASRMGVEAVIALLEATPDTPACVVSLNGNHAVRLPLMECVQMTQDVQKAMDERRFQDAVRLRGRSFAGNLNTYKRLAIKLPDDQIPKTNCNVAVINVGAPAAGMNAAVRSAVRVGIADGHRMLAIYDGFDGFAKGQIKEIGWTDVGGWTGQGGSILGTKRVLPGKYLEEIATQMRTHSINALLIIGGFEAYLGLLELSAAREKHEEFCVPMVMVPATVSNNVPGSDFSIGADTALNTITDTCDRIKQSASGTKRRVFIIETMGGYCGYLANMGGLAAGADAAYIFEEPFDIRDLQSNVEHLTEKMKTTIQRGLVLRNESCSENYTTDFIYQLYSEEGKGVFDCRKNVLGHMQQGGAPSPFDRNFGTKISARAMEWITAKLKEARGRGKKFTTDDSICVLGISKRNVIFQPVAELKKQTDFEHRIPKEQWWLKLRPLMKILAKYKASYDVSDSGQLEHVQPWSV
Nature of the assay: PFKP activation. It counts as biochemical.

Assay [2] has as its system neutrophils (PMA-stimulated NETosis). Nature of the assay: Quantification of NETosis using SYTOX Green. It counts as cell-based, human. The following applies: for NETosis (qualitative): polymorphonuclear leukocytes, FIG. 1. The text has this: Semi-automated analysis of both phase and fluorescence images of SYTOX Green-stained neutrophils used a MATLAB algorithm. Total cells were counted by scoring phase standard deviation and radial symmetry. NETosis was classified in cells by measuring the DNA area in the fluorescence image and comparing with a select internal training set for each experiment. Unstimulated cells and PMA-stimulated, pyocyanin-inhibited cells served as negative controls. PMA-stimulated cells served as a positive control. NET-forming cells are presented as a percentage of total cells.

For assay [3], the system named is neutrophils (PMA-stimulated ROS). Kind of assay: ROS detection assay (ROS-Glo, H2O2). It counts as cell-based. The settings on record: Neutrophil; human neutrophils, 30 min preincubation, 50 nM PMA for 30 min. The procedure:
ROS were measured in neutrophils using the ROS-Glo bioluminescent assay (Promega) for the direct detection of H2O2. Neutrophils were isolated from fresh human blood using a biphasic Histopaque gradient as described here. Cells (100 uL per well) were plated in 96-well plates at a density of 200,000 cells/mL in high glucose DMEM medium. Cells were preincubated with either DMSO vehicle or compounds (10-point dilution curve starting at 2 uM with 3-fold serial dilution) for 30 min, and then stimulated with 50 nM PMA for 30 min. Luminescence, after the addition of H2O2 substrate solution for 20 min, and then ROS-Glo detection solution for 20 min, was recorded on a luminescence plate reader. The fifty percent inhibitory concentration (IC50) was determined with GraphPad Prism by plotting the assay output (RLU) versus the logarithm of the compound concentration using a non-linear sigmoid with variable slope algorithm with the default curve-fitting parameters in the Prism software.

In assay [4] the target is T2, phosphofructokinase-1 muscle type (PFKM) (Homo sapiens, UniProt P08237).
T2 sequence (P08237 1-780): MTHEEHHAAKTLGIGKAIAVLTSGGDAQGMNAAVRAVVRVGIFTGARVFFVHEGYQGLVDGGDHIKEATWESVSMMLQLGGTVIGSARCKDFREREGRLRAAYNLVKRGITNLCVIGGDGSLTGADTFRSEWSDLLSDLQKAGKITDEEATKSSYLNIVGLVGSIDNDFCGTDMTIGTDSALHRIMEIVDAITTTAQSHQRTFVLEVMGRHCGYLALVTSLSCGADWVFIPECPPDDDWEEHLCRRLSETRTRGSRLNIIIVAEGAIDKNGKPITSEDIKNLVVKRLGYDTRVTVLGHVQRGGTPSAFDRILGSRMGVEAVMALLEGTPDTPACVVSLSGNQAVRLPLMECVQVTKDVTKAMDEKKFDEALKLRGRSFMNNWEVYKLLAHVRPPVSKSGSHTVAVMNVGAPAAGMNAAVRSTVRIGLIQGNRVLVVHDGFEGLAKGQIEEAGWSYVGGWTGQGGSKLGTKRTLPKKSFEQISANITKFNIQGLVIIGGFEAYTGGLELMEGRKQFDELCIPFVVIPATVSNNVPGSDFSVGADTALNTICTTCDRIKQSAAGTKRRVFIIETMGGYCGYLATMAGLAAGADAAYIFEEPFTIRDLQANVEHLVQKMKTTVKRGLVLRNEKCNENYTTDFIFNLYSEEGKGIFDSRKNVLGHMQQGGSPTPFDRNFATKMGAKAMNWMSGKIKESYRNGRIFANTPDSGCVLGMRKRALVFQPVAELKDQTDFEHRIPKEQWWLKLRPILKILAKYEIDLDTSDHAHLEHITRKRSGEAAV
Kind of assay: PFKM activation. It counts as biochemical.

For assay [5], the system named is NOX2-dependent oxidative burst in neutrophils. Kind of assay: NOX2-dependent oxidative burst in neutrophils. It counts as cell-based.
Assay [6] concerns the target T3, phosphofructokinase-1 liver type (PFKL) (Homo sapiens, UniProt P17858).
T3 sequence (P17858 1-780): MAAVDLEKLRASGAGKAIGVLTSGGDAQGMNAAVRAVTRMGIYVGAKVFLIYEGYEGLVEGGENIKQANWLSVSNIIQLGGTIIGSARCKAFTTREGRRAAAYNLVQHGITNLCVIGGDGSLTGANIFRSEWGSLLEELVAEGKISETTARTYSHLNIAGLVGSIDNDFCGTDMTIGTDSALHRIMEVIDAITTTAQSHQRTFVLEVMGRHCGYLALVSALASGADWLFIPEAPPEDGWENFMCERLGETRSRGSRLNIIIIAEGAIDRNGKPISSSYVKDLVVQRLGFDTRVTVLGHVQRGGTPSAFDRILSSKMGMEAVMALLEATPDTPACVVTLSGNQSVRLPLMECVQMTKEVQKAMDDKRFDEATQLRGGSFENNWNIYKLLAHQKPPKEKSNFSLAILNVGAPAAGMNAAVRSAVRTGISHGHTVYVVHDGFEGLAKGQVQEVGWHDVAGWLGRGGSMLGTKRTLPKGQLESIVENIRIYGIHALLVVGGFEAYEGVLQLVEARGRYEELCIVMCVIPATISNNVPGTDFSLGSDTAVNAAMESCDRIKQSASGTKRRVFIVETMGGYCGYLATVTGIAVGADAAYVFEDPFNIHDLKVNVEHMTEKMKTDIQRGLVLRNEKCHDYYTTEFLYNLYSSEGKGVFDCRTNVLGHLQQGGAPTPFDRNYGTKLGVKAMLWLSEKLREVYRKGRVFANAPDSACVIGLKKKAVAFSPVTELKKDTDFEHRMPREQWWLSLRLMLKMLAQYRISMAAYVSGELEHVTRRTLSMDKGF
Nature of the assay: PFKL activation. It counts as biochemical.

The target in assay [7] is T4, GSDMD pore-forming fragment (Homo sapiens, UniProt P57764).
T4 sequence (P57764 1-275 limits assumed): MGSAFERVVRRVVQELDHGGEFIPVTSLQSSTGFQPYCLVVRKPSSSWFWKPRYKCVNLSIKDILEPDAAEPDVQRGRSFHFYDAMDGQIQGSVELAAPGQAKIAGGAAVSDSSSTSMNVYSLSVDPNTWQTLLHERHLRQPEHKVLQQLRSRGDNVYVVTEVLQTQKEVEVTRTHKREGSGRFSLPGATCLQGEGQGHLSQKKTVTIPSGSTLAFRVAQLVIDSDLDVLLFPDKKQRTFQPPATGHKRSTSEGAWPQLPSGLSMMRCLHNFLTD
Kind of assay: TR-FRET liposome permeabilization by GSDMD pore-forming fragment. It counts as biochemical. The settings on record: liposomes exposed to caspase-4 and GSDMD. The procedure: (§1) FIG. 1. […] LDH (A) or IL-1β (B) released from primary human monocytes. Bars show the mean±s.e.m. of monocytes from 3 donors. (C) Western blots of monocytes at 1 h after electroporation with LPS. FL, full length GSDMD. NT, N-terminal fragment of GSDMD. Results representative of 3 independent experiments. (D) Coomassie blue staining of recombinant GSDMD. Results representative of 3 independent experiments. (E) TR-FRET assay measuring Europium-labeled biotin released from liposomes exposed to caspase-4 and GSDMD. Symbols indicate the mean±s.d. of 3 independent experiments. (F-G) Percentage of polymorphonuclear leukocytes (PMNs) undergoing NETosis induced by PMA (F) or the stimuli indicated (G). Data are the mean±s.d. of cells from 3 donors. (H) ROS production by PMNs. Bars show the mean±s.e.m. of PMNs from 3 donors. P-values (Two-way ANOVA, means compared to medium alone) are shown if P<0.05. (I) Percentage of PMNs undergoing PMA-induced NETosis. The x-axis indicates when NA-11 was added relative to the addition of PMA (t=0). Bars show the mean±s.e.m. of PMNs from 3 donors. P-values (one-way ANOVA, means compared to medium alone) are shown if P<0.05.
(§2) LDC7559 was reported to block the pore-forming activity of GSDMD (Sollberger et al., 2018). The ability to inhibit GSDMD-dependent pyroptosis in primary human monocytes and human monocytic THP-1 cells was tested (FIG. 1A-C).

Assay [8] relates to GSDMD-dependent pyroptosis in primary human monocytes and human monocytic THP-1 cells. Nature of the assay: GSDMD-dependent pyroptosis, LDH release. The settings on record: induced by nigericin, cytoplasmic LPS or cytoplasmic poly(dA-dT). It counts as cell-based. The procedure: as §1, §2
The target of assay [9] is T5, GSDMD (Homo sapiens, UniProt P57764).
T5 construct: Western blots of monocytes at 1 h after electroporation with LPS; endogenous in cells; host or cells: primary human monocytes
T5 sequence (P57764 1-484): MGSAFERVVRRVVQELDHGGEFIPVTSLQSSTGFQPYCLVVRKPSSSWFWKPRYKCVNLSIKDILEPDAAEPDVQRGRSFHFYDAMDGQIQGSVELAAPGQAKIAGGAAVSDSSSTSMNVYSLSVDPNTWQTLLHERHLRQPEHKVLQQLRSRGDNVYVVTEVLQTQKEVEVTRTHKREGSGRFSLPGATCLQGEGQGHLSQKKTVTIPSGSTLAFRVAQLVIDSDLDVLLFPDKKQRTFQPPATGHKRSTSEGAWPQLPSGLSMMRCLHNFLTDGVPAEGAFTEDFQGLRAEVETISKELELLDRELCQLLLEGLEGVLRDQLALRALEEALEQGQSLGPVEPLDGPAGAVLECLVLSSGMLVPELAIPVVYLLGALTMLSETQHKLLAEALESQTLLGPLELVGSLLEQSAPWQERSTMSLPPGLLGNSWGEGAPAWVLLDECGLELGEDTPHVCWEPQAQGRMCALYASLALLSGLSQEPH
Kind of assay: Western blot of LPS-induced cleavage of GSDMD in monocytes. It counts as cell-based. The settings on record: monocytes after electroporation with LPS. The procedure: as §1, §2

For assay [10], the system named is GSDMD-dependent release of interleukin-1β (IL-1β) from monocytes. Nature of the assay: GSDMD-dependent release of IL-1β from monocytes. It counts as cell-based, human. The following applies: in response to nigericin or poly(dA-dT). The procedure: as §1, §2
Assay [11] addresses T6, recombinant GSDMD / caspase-4 (Homo sapiens, UniProt P57764).
T6 sequence (P57764 1-484): T5 sequence (P57764 1-484)
Nature of the assay: Cleavage of recombinant GSDMD by caspase-4. It counts as biochemical. The procedure: as §1, §2

“Also recorded” adds a separate entry of the source.

Consider `CC(=O)Nc1ccc2c(c1)OCc1cc(-c3ccccc3C#CCCCO)nn1C2` [Example 6, N-(2-(2-(5-hydroxypent-1-yn-1-yl)phenyl)-4H,10H-benzo[f]pyrazolo[5,1-c][1,4]oxazepin-7-yl)acetamide], for which, in assay [1], the “agonism of PFKP” value was “failed to agonize”. For the same compound, the IC50 is 4 ± 0.5 nM in [2] (Homo sapiens, Neutrophil, NETosis, SYTOX Green-stained neutrophils, PMA-stimulated) and 26 nM in assay [3]. For the same compound, in [2] (compound at 5 uM, NET-forming cells as percentage of total cells, vehicle 79.66, untreated 14.54), the “5 uM (% NETosis)” value turned out to be 58.67%. For the same compound, in assay [2], the “NETosis (qualitative)” value was “inhibit NETosis”. The “agonism of PFKM” value in [4] is listed as “failed to agonize”. The NOX2-dependent oxidative burst result in assay [5] is reported as “inhibit”. In [6], the “agonism/activation of PFKL” value is reported as “activating”.
Turning to `COc1ccccc1-c1cc2n(n1)Cc1ccc(NC(C)=O)cc1OC2` [LDC7559, N-(2-(2-methoxyphenyl)-4H,10H-benzo[f]pyrazolo[5,1-c][1,4]oxazepin-7-yl)acetamide], the “NETosis (qualitative)” value in [2] was “inhibit NETosis”. The “liposome permeabilization by GSDMD pore-forming fragment” value in [7] was “Nor did it prevent”. The “GSDMD-dependent pyroptosis (LDH release)” value in [8] is reported as “did not alter”. In [9], the “LPS-induced cleavage of GSDMD (Western blotting)” value was “did not prevent”. Moreover, in [10], the “GSDMD-dependent release of IL-1β” value is “occurred normally”. The “cleavage of recombinant GSDMD by caspase-4” value in assay [11] was “did not inhibit”. Further, the NOX2-dependent oxidative burst entry in assay [5] is given as “inhibit; also recorded: suppress”. Moreover, the “agonism/activation of PFKL” value in assay [6] is on record as “activating; also recorded: agonize”.

(Values after US12459957B2, “Therapeutic compounds and methods” (GENENTECH, INC., priority 2021, dated 2025).)
